Laboratory results reported in EP0008186A1, “Cyclic diamides, a process for their preparation and their pharmaceutical compositions” (BEECHAM GROUP PLC, priority 1978, dated 1980).

Assays:
Assay type in all cases: in vivo
[1] = system: conscious guinea pigs; assay: Herxheimer test: protection against histamine aerosol induced bronchoconstriction; details: administered by aerosol or by oral administration, mean of several experiments
Method: • 1. The compounds were examined for their ability to inhibit 5-hydroxytryptamine or histamine induced bronchoconstriction in the anaesthetised, artifically respired guinea pig (Konzett-Rossler preparation). The compounds were administered intravenously. The results are shown in Table A. [formula] • 2. Compound 3 was also examined for its ability to protect conscious guinea pigs against bronchoconstriction induced by an histamine aerosol (Herxheimer test). In these experiments the compound was administered by aerosol or by oral administration. The results are the mean of several experiments. Compound 3 was active at 10 mg/kg.

[2] = system: anaesthetised, perfused rat stomach preparation; assay: Inhibition of pentagastrin-stimulated gastric acid secretion (Ghosh and Schild preparation); details: i.v.
Method: The compounds were examined for their ability to inhibit pentagastrin-stimulated gastric acid secretion in the anaesthetised, perfused rat stomach preparation (Ghosh and Schild preparation). The compounds were administered intravenously.

[3] = system: rat; assay: Anti-ulcer activity: inhibition of indomethacin induced gastric damage; details: gastric damage score 1-9; 50mg/kg orally 30 minutes prior to 15mg/kg indomethacin subcutaneously; sacrificed 4 hours later; vehicle 4.57 ± 0.69; p <0.01 (Mann Witney)
Method: Anti-ulcer activity was assessed by the inhibition of indomethacin induced gastric damage in the rat according to the method of Eleghe (1974) Israeli J. Med. Sci. 10 1451. Rats were starvedovernight given 15mg/kg indomethacin subcutaneously and sacrificed 4 hours later. Stomachs were reflated with n. saline, cut along the greater curvature pinned out and scored for gastric damage by the following system: • Score 1 - 3 - according to degree of erythema and slight haemorrhage. • Score 4 - 6 - according to degree of mucosal erosion. • Score 7 - 9 - according to depth of gastric damage.
Groups of 7 rats were used for each treatment and the test compound or vehicle were administered 30 minutes prior to giving the indomethacin. Dose of test compound was 50mg/kg orally and control groups receiving vehicle only were set up simultaneously. Mean values for each treatment were obtained using the above scoring system and the Mann Witney test applied for significance of difference between the values obtained with the treatments.

SMILES | active at (protection against bronchoconstriction induced by an histamine aerosol) [1] [mg/kg] | inhibited gastric acid secretion at [2] [mg/kg] | Test Mean Score ± S.E. of Mean [3]
CCCCC(C)C(C)(O)CCN1C(=O)CN(C)C(=O)C1CCCCCCC(=O)OC (stereo not shown) [Compound 3] | 10 | 0.2 | 0.71 ± 0.42 (p <0.01)
COC(=O)CCCCCCC1C(=O)N[C@@H](C)C(=O)N1CCC(C)(O)C1CCCCC1 (stereo partly shown) [Compound 9] | – | 0.25 | –
